Laboratory results taken from patent US20220265657A1, “ADMINISTRATION METHOD AND DOSAGE REGIMEN FOR TREATMENT OF NEURODEGENERATIVE DISEASES USING TRAMETINIB AND MARKERS” (GENUV INC., priority 2019, published 2022).

Columns and labels:
primary cortical neurons [1] = test: Western blot of primary cortical neurons; format: cell-based, ICR mice
Protocol: Lysates were centrifuged at 13,000 rpm for 20 min at 4° C., and the protein content in the supernatant was determined using the Bradford assay (Bio-rad, Hercules, Calif.). For subcellular fractionation, cells were lysed with lysis buffer (250 mM Sucrose, 20 mM HEPES, pH 7.4, 10 mM KCl, 1.5 mM MgCl2, 1 mM EGTA, 1 mM EDTA, 1 mM DTT) containing protease inhibitor for 30 min on ice, followed by centrifugation at 720 g for 5 min at 4° C. Supernatants were centrifuged at 15,000 rpm for 10 min at 4° C., and the resulting supernatant was used as the cytosol fraction. After centrifugation at 720 g for 5 min, pellets were washed with lysis buffer and dissolved in nuclear lysis buffer (50 mM Tris HCl, pH 8.0, 150 mM NaCl, 1% NP40, 0.5% sodium deoxycholate, 0.1% SDS, 10% glycerol) as the nuclear fraction. Protein from each sample was subjected to 8%˜15% SDS-PAGE, and the resolved proteins were transferred to nitrocellulose or polyvinylidene fluoride membrane. The membranes were blocked with 5% nonfat milk powder in Tris-buffered saline/Tween 20 (TBST) for 1 h at room temperature, then incubated with anti-phospho-ERK (Cell signaling), anti-ERK (Cell signaling), anti-LAMP1 (Abcam), anti-LC3 (Cell signaling), anti-cathepsin B (Cell signaling), anti-p62 (Cell signaling), anti-p62 (5114, Cell signaling), anti-phospho-mTOR (5536, Cell signaling), anti-mTOR (2983, Cell signaling), anti-phospho-ULK1 (14202, Cell signaling), anti-ULK1 (8054, Cell signaling), anti-TFEB (852501, Biolegend), and anti-GAPDH (Cell signaling) overnight at 4° C.

primary cortical neurons [2] = test: Immunofluorescence of LC3, LAMP1 and lysotracker in primary cortical neurons; format: cell-based, ICR mice; settings: even in the presence of Aβ1-42 oligomers
Protocol: Cell culture: SH-SY5Y neuroblastoma cells were cultured at 37° C., 5% CO2., in Dulbecco's Modified Eagle Medium/Ham's F-12 nutrient mixture (DMEM/F12) (Invitrogen, Carlsbad, Calif.) supplemented with 10% heat-inactivated fetal bovine serum containing 100 units/ml penicillin, 100 μg/ml streptomycin. Primary cortical neuron cultures were derived from embryo day 18 (E18) from ICR mice. The dissociated cells were plated on glass cover slips coated with poly-D-lysine in Neurobasal medium supplemented with 2% B27 (Invitrogen), 100 units/ml penicillin, 100 μg/ml streptomycin, and 2 mM L-glutamine. Primary NSCs from normal mice were isolated from the subventricular zone (SVZ) of 8 week-old C57BL/6 mice brain. NSCs from adult Tg2576 mice brain were obtained from Seoul National University Hospital. […]
Immunocytochemistry: SH-SY5Y cells or adult NSCs were placed on glass coverslips coated with poly-L-ornithine/laminin or poly-D-lysine, respectively. […] The percentage of coefficient was calculated using the pixels above threshold of fluorescence intensities. […] The fluorescence intensity was observed under a confocal microscopy using a LSM700 microscope (Carl Zeiss). The number of LysoTracker puncta was analyzed with Icy software.

CC(=O)Nc1cccc(-n2c(=O)n(C3CC3)c(=O)c3c(Nc4ccc(I)cc4F)n(C)c(=O)c(C)c32)c1 [trametinib]
decrease of p-mTOR/mTOR ratio compared to Aβ1-42 treated alone group (primary cortical neurons [1]; 100 nM, co-treated with Aβ1-42): 67% | decrease of pULK1(S757) to total ULK1 ratio compared to Aβ1-42 treated alone neurons (primary cortical neurons [1]; co-treated with Aβ1-42): 29% | increase of mature cathepsin B level compared to vehicle treated control (CTL) (primary cortical neurons [1]; primary cortical neurons): 54% | increase of mature cathepsin B level compared to Aβ1-42 treated alone group (primary cortical neurons [1]; primary cortical neurons treated with Aβ1-42 oligomers): 73% | co-staining of LC3-LAMP1 (primary cortical neurons [2]): increased co-staining of LC3-LAMP1 | lysotracker-positive acidic puncta (primary cortical neurons [2]): increased
